Measured values taken from patent publication US11964971B2, “Methods and compositions for modulating splicing” (Skyhawk Therapeutics, Inc., priority 2019, dated 2024).
Like-named read-outs stand apart in the source and are kept apart here.

How the values were obtained:
[1] = tested on: SMN FL and SMN Δ7; test: Quantitative splicing assay (SMN) in SMA patient fibroblasts (GM03813); format: cell-based; conditions: Homo sapiens, Fibroblast, read-out: SMN2 Splicing FL EC50 (nM)*
Method: Spinal muscular atrophy (SMA) patient fibroblasts (GM03813, Coriell) are plated in 96-well plates at 50,000 cells/well. […] Treated cells are lysed and cDNA synthesized using the Fast Advanced Cells-to-Ct kit (Thermofisher A35378) according to the manufacturer's instructions. 2 μL of each cDNA are used in qPCR reactions. […] Reactions are run in a Quant Studio 6 qPCR instrument with default settings.

[2] = tested on: SMN protein; test: SMN protein assay (MSD) in SMA patient fibroblasts (GM03813); format: cell-based, human
Outline: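 Absolute SMN protein measured by Mesoscale Discovery assay in lysates, calibrated per plate with SMN standards (1–19.5 μg/ml). Cells: GM03813 SMA fibroblasts, 7000/well, 48 h compound exposure at doses of 2.5 μM down to 0.6 nM.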

[3] = tested on: MDR1-MDCK cell monolayers; conditions: dog, MDCK-MDR1, 120 min, 5 μM, pH 7.4
Method: (§1) Experimental Procedure: MDR1-MDCK cell monolayers are grown to confluence on collagen-coated, microporous membranes in 12-well assay plates. The permeability assay buffer is Hanks' balanced salt solution containing 10 mM HEPES and 15 mM glucose at a pH of 7.4. The buffer in the receiver chamber also contained 1% bovine serum albumin. The dosing solution concentration is 5 μM of test article in the assay buffer. Cell monolayers are dosed on the apical side (A-to-B) or basolateral side (B-to-A) and incubated at 37° C. with 5% CO2 in a humidified incubator. Samples are taken from the donor and receiver chambers at 120 minutes. Each determination is performed in duplicate. The flux of lucifer yellow is also measured post-experimentally for each monolayer to ensure no damage was inflicted to the cell monolayers during the flux period. All samples are assayed by LC-MS/MS using electrospray ionization.
(§2) Analytical Method: Liquid Chromatography • Column: Waters ACQUITY UPLC BEH Phenyl 30×2.1 mm, 1.7 μm • M.P. Buffer: 25 mM ammonium formate buffer, pH 3.5 • Aqueous Reservoir (A): 90% water, 10% buffer • Organic Reservoir (B): 90% acetonitrile, 10% buffer • Flow Rate: 0.7 mL/minute • Gradient Program:
(§3) • Total Run Time: 1.00 minute • Autosampler: 2 μL injection volume • Wash1: water/methanol/2-propanol:1/1/1; with 0.2% formic acid • Wash2: 0.1% formic acid in water • Brain Penetration • Potential Classification: A-B Papp≥3.0 and Efflux Ratio<3.0: High • A-B Papp≥3.0 and 10>Efflux Ratio≥3.0: Moderate • A-B Papp≥3.0 and Efflux Ratio≥10: Low • A-B Papp<3.0: Low

[4] = tested on: MDR1; test: in vitro; conditions: dog; for Papp A→B at 120 min, 5 μM: MDCK-MDR1, pH 7.4, MDCK-MDR1: Papp A-B (10^−6, cm/s); for Papp B→A at 120 min, 5 μM: MDCK-MDR1, pH 7.4, MDCK-MDR1: Papp B-A (10^−6, cm/s)
Method: as §1, §2, §3

[5] = tested on: MDR1 (P-gp); test: MDCK-MDR1 permeability assay, blood-brain-barrier penetration potential; conditions: dog, MDCK-MDR1, pH 7.4, MDCK-MDR1 Efflux Ratio
Method: as §1, §2, §3

Compound | EC50 ([1]; class symbol) [nM] | EC50 [2] [nM] | MDCK-MDR1: % Recov A-B (%) [3] [%] | MDCK-MDR1: % Recov B-A (%) [3] [%] | Papp A→B at 120 min, 5 μM [4] [×10⁻⁶ cm/s] | Papp B→A at 120 min, 5 μM [4] [×10⁻⁶ cm/s] | efflux ratio at 120 min, 5 μM [5] | EC50 ([1]; given as number) [nM]
CNC(=O)/C=C/c1cc(O)c(-c2cnc(N(C)[C@H]3C[C@@H]4CCC(N4)[C@H]3F)cn2)cc1F (single isomer, unassigned) [Compound 60E2] | 51 to 100 | 0.01 to 15 | 89 | 89 | 2.48 | 60.1 | 24 | –
COc1cc(-c2ccc(-c3cnc(N(C)[C@@H]4CC5CC[C@H](N5)[C@@H]4F)cn3)c(O)c2)cnn1 (single isomer, unassigned) [Compound 26E1] | 101 to 500 | 501 to 10000 | 45 | 74 | 5.06 | 24.4 | 5 | –
CN(C)C(=O)c1cc2cc(O)c(-c3cnc(N(C)[C@H]4CC5CC[C@@H](N5)[C@H]4F)cn3)cc2o1 (single isomer, unassigned) [Compound 7E2] | 501 to 10000 | 501 to 10000 | 90 | 93 | 1.92 | 59.9 | 31 | –
CN(c1cnc(-c2ccc(-c3cn[nH]c3)cc2O)cn1)[C@@H]1CC2COC[C@H](N2)[C@@H]1F (single isomer, unassigned) [Compound 72E1] | 501 to 10000 | 501 to 10000 | 90 | 112 | 8.21 | 60.9 | 7 | –
CN(c1cnc(-c2cc(F)c(-c3cn[nH]c3)cc2O)cn1)[C@@H]1CC2CC[C@H](N2)[C@@H]1F (single isomer, unassigned) [Compound 40E1] | 51 to 100 | 16 to 50 | 54 | 75 | 6.63 | 39.2 | 6 | –
CNC(=O)/C=C/c1cc(O)c(-c2cnc(N(C)[C@H]3C[C@]4(C)CC[C@@](C)(N4)[C@H]3F)cn2)cc1F [Compound 61E2, (E)-3-(2-fluoro-4-(5-(((1R,2S,3S,5S)-2-fluoro-1,5-dimethyl-8-azabicyclo[3.2.1]octan-3-yl)(methyl)amino)pyrazin-2-yl)-5-hydroxyphenyl)-N-methylacrylamide] | 501 to 10000 | 0.01 to 15 | 86 | 89 | 0.77 | 41.9 | 54 | –
COc1cc(-c2ccc(-c3cnc(N(C)[C@H]4C[C@]5(C)CC[C@@](C)(N5)[C@H]4F)cn3)c(O)c2)cnn1 [Compound 25E2, 2-(5-(((1R,2S,3S,5S)-2-fluoro-1,5-dimethyl-8-azabicyclo[3.2.1]octan-3-yl)(methyl)amino)pyrazin-2-yl)-5-(6-methoxypyridazin4-yl)phenol] | 501 to 10000 | 101 to 500 | 42 | 70 | 5.01 | 22.9 | 5 | –
CN(c1cnc(-c2ccc(-c3ccn(C)c(=O)c3)cc2O)cn1)[C@H]1C[C@@H]2CCCC(N2)[C@H]1F (single isomer, unassigned) [Compound 83E2] | 101 to 500 | 16 to 50 | 106 | 118 | 1.28 | 45 | 36 | –
CN(c1cnc(-c2cc(F)c(-c3cn[nH]c3)cc2O)cn1)[C@H]1C[C@]2(C)CC[C@@](C)(N2)[C@H]1F [Compound 57E2, 4-fluoro-2-(5-(((1R,2S,3S,5S)-2-fluoro-1,5-dimethyl-8-azabicyclo[3.2.1]octan-3-yl)(methyl)amino)pyrazin-2-yl)-5-(1H-pyrazol-4-yl)phenol] | 501 to 10000 | 0.01 to 15 | 35 | 64 | 5.8 | 20 | 3 | –
CN(c1cnc(-c2ccc(-c3ccn(C)c(=O)c3)cc2O)cn1)[C@@H]1CC2CC[C@H](N2)[C@@H]1F (single isomer, unassigned) [Compound 45E1] | 51 to 100 | 101 to 500 | 88 | 85 | 1.3 | 47.6 | 37 | –
CN(c1cnc(-c2ccc(-c3cn[nH]c3)cc2O)cn1)[C@H]1C[C@]2(C)CCC(N2)[C@H]1F (single isomer, unassigned) [Compound 28E1] | 101 to 500 | 0.01 to 15 | 66 | 80 | 3.23 | 48.1 | 15 | –
CN(c1cnc(-c2cc(F)c(-c3ccn(C)c(=O)c3)cc2O)cn1)[C@H]1C[C@@H]2CCC(N2)[C@H]1F (single isomer, unassigned) [Compound 13E2] | – | 0.01 to 15 | 80 | 87 | 1.97 | 40.8 | 21 | 398
CN(c1cnc(-c2ccc(-c3ccn(C)c(=O)c3)cc2O)cn1)[C@@H]1CC2CCC[C@H](N2)[C@@H]1F (single isomer, unassigned) [Compound 83E1] | 101 to 500 | 101 to 500 | 78 | 81 | 0.94 | 48.4 | 52 | –
CN(c1cnc(-c2ccc(-c3cnn(CF)c3)cc2O)cn1)[C@@H]1CC2CC[C@H](N2)[C@@H]1F (single isomer, unassigned) [Compound 42E1] | 51 to 100 | 16 to 50 | 48 | 59 | 5.38 | 30.4 | 6 | –
CN(c1cnc(-c2ccc(-c3cnn(C)c3)cc2O)cn1)[C@H]1CC2CC[C@@H](N2)[C@H]1F (single isomer, unassigned) [Compound 3E2] | 101 to 500 | 16 to 50 | 53 | 68 | 9.7 | 27.1 | 3 | –
COc1cc(-c2ccc(-c3cnc(N(C)[C@@H]4CC5COC[C@H](N5)[C@@H]4F)cn3)c(O)c2)ccn1 (single isomer, unassigned) [Compound 81E1] | 501 to 10000 | 501 to 10000 | 28 | 47 | 2.69 | 3.08 | 1 | –
CN(c1cnc(-c2cc(F)c(-c3cnn(CF)c3)cc2O)cn1)[C@H]1C[C@@H]2CCC(N2)[C@H]1F (single isomer, unassigned) [Compound 29E2] | 51 to 100 | 16 to 50 | 31 | 50 | 5.59 | 18.3 | 3 | –
CN(c1cnc(-c2ccc(-c3cn[nH]c3)cc2O)cn1)[C@H]1C[C@]2(C)CCC[C@@](C)(N2)[C@H]1F [Compound 23E2, 2-(5-(((1R,2S,3S,5S)-2-fluoro-1,5-dimethyl-9-azabicyclo[3.3.1]nonan-3-yl)(methyl)amino)pyrazin-2-yl)-5-(1H-pyrazol-4-yl)phenol] | 16 to 50 | 0.01 to 15 | 39 | 65 | 5.71 | 13.6 | 2 | –
CN(c1cnc(-c2ccc(-c3cn[nH]c3)cc2O)cn1)[C@H]1C[C@@H]2COCC(N2)[C@H]1F (single isomer, unassigned) [Compound 72E2] | 501 to 10000 | 101 to 500 | 96 | 113 | 9.82 | 82.5 | 8 | –
COc1cc(-c2ccc(-c3cnc(N(C)[C@@H]4CC5CC(F)(F)[C@@H](C4)N5)cn3)c(O)c2)cnn1 (single isomer, unassigned) [Compound 68E2] | 501 to 10000 | 501 to 10000 | 66 | 89 | 9.81 | 47.2 | 5 | –
COc1cc(-c2cc(O)c(-c3cnc(N(C)[C@H]4C[C@@H]5CCC(N5)[C@H]4F)cn3)cc2F)ncn1 (single isomer, unassigned) [Compound 34E2] | 51 to 100 | 16 to 50 | 21 | 66 | 3.76 | 7.23 | 2 | –
